Laboratory results from patent US8119773B2, “Compositions and methods for facilitating heme-iron export from cells” (University of Washington, priority 2007, dated 2012).
Ends that are not written are not given here.

Legend:
[1] = target: T1, human FLVCR (Homo sapiens, UniProt Q9Y5Y0); experiment: ZnMP export from NRK cells engineered to express human FLVCR, with carrier protein; format: cell-based; details: NRK cells expressing human FLVCR; 37° C. for 90 min
T1 construct: expressed in transfected cells; host or cells: NRK (rat kidney) cells engineered to express human FLVCR
T1 sequence (Q9Y5Y0 1-555): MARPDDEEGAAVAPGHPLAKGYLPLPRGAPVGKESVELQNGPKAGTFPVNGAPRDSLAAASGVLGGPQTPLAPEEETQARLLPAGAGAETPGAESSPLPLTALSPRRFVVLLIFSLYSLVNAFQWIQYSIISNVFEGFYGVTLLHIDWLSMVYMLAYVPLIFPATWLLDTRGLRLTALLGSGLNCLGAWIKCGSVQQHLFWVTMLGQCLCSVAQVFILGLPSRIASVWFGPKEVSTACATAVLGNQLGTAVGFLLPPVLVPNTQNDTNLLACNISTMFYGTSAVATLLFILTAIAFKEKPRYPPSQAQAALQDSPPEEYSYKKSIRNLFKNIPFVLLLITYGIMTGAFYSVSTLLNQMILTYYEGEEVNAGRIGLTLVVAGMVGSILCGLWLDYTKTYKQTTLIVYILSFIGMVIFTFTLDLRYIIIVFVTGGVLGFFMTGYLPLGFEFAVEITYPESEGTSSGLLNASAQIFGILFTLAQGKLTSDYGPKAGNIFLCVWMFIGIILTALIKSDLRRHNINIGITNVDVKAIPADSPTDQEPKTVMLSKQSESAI
Excerpt: ZnMP and ^55Fe-hemin uptake and washout studies.
To gain insights into the structure and function of FLVCR, we first studied the export of zinc mesoporphyrin (ZnMP), a fluorescent heme analog that traffics similarly to heme and also blocks heme oxygenase activity.

[2] = heme binding; cited from earlier work
[3] = tested on: bone marrow-derived macrophages; experiment: Ferritin studies in macrophages (ELISA) with or without hepcidin; format: cell-based, mouse; details: control and Flvcr-deleted macrophages exposed to FAC (10 μM Fe) 24 hours, washed, then 24 hours with hepcidin (1 ug/ul)
Protocol: FIGS. 4A-4B. FLVCR exports heme-iron from macrophages. (4A) Bone marrow-derived macrophages from control (striped) and mice in which Flvcr was deleted neonatally (black) were incubated in the absence or presence of FAC (10 μM Fe) for 24 or 48 hours, then washed; ferritin was measured by enzyme-linked immunosorbent (ELISA) (i). Cells were incubated with FAC for 24 hours (ii) or with IgG-coated red blood cells (RBC) for 90 min (iii), washed, then incubated for an additional 24 hours with or without hepcidin (1 ug/ul) and ferritin assayed. Data represent ferritin values in macrophages derived from two control and two deleted mice±SEM of triplicate samples per mouse. (4B) Model of macrophage heme-iron recycling.
Murine macrophage culture. Single-cell suspensions of mouse bone marrow were collected from mice 5 days after completing poly(I)-poly(C) treatment. […] Macrophages were defined by flow cytometry (Mac-1^+, f4/80^+, GR-1^−) and analyzed for ZnMP and ^55Fe-hemin export 10-24 days post in vivo deletion (after 5-19 days in culture).
Ferritin studies in macrophages. […] After 24 hrs, the samples were collected in lysis buffer (150 mM NaCl, 10 mM EDTA, 1% Triton X-100, 10 mM Tris pH 7.4), and complete protease inhibitor (Roche Diagnostics Co., Indianapolis, Ind.) and analyzed for ferritin levels as described (S16).

efficacy in inducing ZnMP export, relative to albumin [1]	Substance	Kd [2]	ferritin [3]
100 fold	hemopexin [Hpx]	< 1 pM	–
–	hepcidin (DTHFPICIFCCGCCHRSKCGMCCKT; ends and bridges not checked; cysteine pairing not given here; UniProt P81172 60-84, looked up)	–	increase equivalently
